Here are results for one compound from patent US20030161893A1, “PTPase inhibitors and methods of using the same” (priority 2001, published 2003).

Molecules are shown by their SMILES.

For one test, the system named is Baf3 cells. The test can be described thus: Baf3 cell proliferation assay. Type of test: cell-based, murine. The method, then:
The murine hematopoietic cell line Baf3 was maintained in RPMI 1640 medium supplemented with 10% fetal calf serum (FCS) and murine IL-3 (20 units/ml) as described previously in Damen et al., J. Biol. Chem. 270, 23402 (1995). Human myeloid cell line TF-1 was maintained in RPMI 1640 supplemented with 10% FCS and 40 ng/ml of recombinant human GM-CSF as described previously in Thomassen et al., Clin. Immunol. 95, 85 (2000). For cell proliferation assays, cells were washed in 10% FCS medium twice, resuspended in 10% FCS medium, incubated at 37° C. for 16 hours, and then cultured at 37° C. in 10% FCS medium containing various amounts of cytokines, sodium stibogluconate, or potassium antimonyl tartrate for 3-6 days as indicated. The cell numbers in proliferation assays were determined by an MTT assay or by microscopic cell counting as indicated.

The next test relates to WM35 cells. The test can be described thus: Cell proliferation assay (MTT), WM35 melanoma cells. Type of test: cell-based, human. The procedure: For cell proliferation assays, cells were grown in 10% FCS culture medium containing various amounts of IFNs and/or sodium stibogluconate in 96 well plates and cultured at 37° C. for 3 or 6 days as indicated. The numbers of viable cells in proliferation assays were determined by MTT assays as described in Phatak et al., J. Immunol. 167, 3391 (2001).

For test [1], the system named is PML/RAR-alpha chimeric protein. Nature of the test: PML/RAR-alpha chimeric protein expression in NB4 cells. The test is classed as cell-based, human.
For another test, the target named is T1, PRL-3 (Homo sapiens, UniProt O75365).
T1 construct: cDNAs of human PRL-1, PRL-2 and PRL-3 coding region were derived by RT-PCR from H9 cells; made in house; host or cells: DH5a bacteria (E. coli)
Nature of the test: In vitro PTPase assay, recombinant PRL-3. The test is classed as biochemical. The text has this:
Sodium stibogluconate, suramin, sodium orth ovanadate and GST fusion protein of SHP-1 have been described previously (Pathak et al., J. Imumol. 167, 3391 (2001)). Meglumine antimonate was obtained from Aventis. cDNAs of human PRL-1, PRL-2 and PRL-3 coding region were derived by RT-PCR from H9 cells (Safai, et al., Lancet 1, 1438 (1984)) and inserted in frame into the pGEX vector. cDNA of PRL-1R86 was generated by recombinant DNA technique using PRL-1 cDNA as template following established procedures (Jiao, et al., Mol. Cell. Biol. 16, 6985 (1996)). GST fusion proteins of the PRL phosphatases were prepared from DH5a bacteria transformed with the pGEX fusion protein constructs as described previously (Yi, et al., Mol. Cell. Biol. 12, 836 (1992)). cDNAs encoding the PRLs tagged at the N-termini with the Flag epitope (Castrucci, et al., J. Virol. 66, 4647 (1992)) were generated via recombinant DNA technique, sequenced to confirm their identities and cloned into the pBabepuro vector (Yang, et al., Blood 91, 3746 (1998)). Anti-Flag monoclonal antibody (M2, Sigma) was purchased from a commercial source. A synthetic phosphotyrosine peptide (Arg-Arg-Leu-Ile-Glu-Asp-Ala-Gle-Tyr-Ala-Ala-Arg-Gly (SEQ ID NO: 3), wherein the tyrosine is phosphorylated; UBI) and DiFMUP (6, 8-difluoro-4-methylumbelliferyl phosphate, Molecular Probes) were purchased as substrates for PTPase assays.
In vitro PTPase assays were used to determine the effects of compounds on recombinant PTPases, following established procedures using a synthetic phosphotyrosine peptide or DiFMUP as the substrate (Pathak et al., J. Imumol. 167, 3391 (2001)). Briefly, individual PTPases (0.1 μg/reaction) in 50 μL of PTPase buffer (50 mM Tris, pH 7.4) were incubated at 22° C. for 10 minutes or as indicated in the absence or presence of inhibitory compounds. Substrates (0.2 mM phosphotyrosine peptide) were then added and allowed to react at 22° C. for 18 hrs. PTPase activity of individual reactions was measured by adding 100 μL of malachite green solution (UBI) and then quantifying the amounts of free phosphate cleaved by the PTPase from the peptide substrate by spectrometry (OD660 nm). PTPase assays using DiFMUP as a substrate were conducted following a previously described procedure (Matter, et al., Biochem. Biophys. Res. Comm. 283, 1061 (2001)). Relative PTPase activities were calculated based on the formula: (PTPase activity in the presence of an inhibitory compound/PTPase activity in the absence of the compound)×100%. To assess the reversibility of PTPase inhibition, GST fusion proteins of the PTPases bound on glutathione beads (Pharmacia) were pre-incubated with cold Tris buffer (50 mM Tris, pH 7.0) or Tris buffer containing the inhibitor at 4° C. for 30 minutes. The beads were then washed three times in cold Tris buffer or not washed prior to subjecting to in vitro PTPase assays.

The next test has as its system DU145R cells. The test can be described thus: Cell growth assay (MTT), DU145R cells. Type of test: cell-based, human. As to conditions: day 6 culture. The method, then:
DU145 cells were cultured in the presence of sodium stibogluconate (100 μg/ml) in 48 well plates for 3 weeks. Cells from a well containing a single colony were transferred to flasks, cultured in sodium stibogluconate-free medium for 3 weeks and used as DU145R cells for further characterization. Growth of DU145R cells in the absence or presence of sodium stibogluconate in day 6 culture was determined by MTT assays. cDNAs of the coding region of PRLs were derived by RT-PCR from DU145 and DU145R cells and sequenced using primers described below.

For another test, the system named is Stat1. Nature of the test: IFN-alpha-induced Stat1 tyrosine phosphorylation, DU145 cells. The settings on record: DU145, 5 hours post-stimulation. The test is classed as cell-based, human. The method, then:
For induction of Stat1 tyrosine phosphorylation by IFN-alpha in the absence or presence of sodium stibogluconate, cells grown in 10% FCS RPMI 1640 medium at 37° C. were stimulated with IFN-alpha (50 u/ml) for various time points and treated with or without sodium stibogluconate for 5 minutes prior to termination by lysing the cells in cold lysis buffer (1% NP-40; 50 mM Tris, pH 7.4; 100 mM NaCl; 1 mM EDTA, 10% glycerol, 10 mM sodium molybdic acid and 4 mM AEBSF).
Cell lysates were prepared by lysing cells in cold lysis buffer for 30 min and cleared by centrifuging at 14,000 rpm at 4° C. for 15 min. For SDS-PAGE, cell lysates were mixed with equal volume of 2×SDS-PAGE sample buffer, heated at 90° C. for 5 min and separated in 10% SDS-PAGE gels. Cellular proteins in SDS-PAGE gels were transferred to nitrocellulose membrane (Schleicher & Schuell, Keene, N.H.), blocked in 5% milk, probed with antibodies and detected by using an enhanced chemiluminescence kit (ECL, Amersham, Arlington Heights, Ill.).

T1 sequence (O75365 whole entry): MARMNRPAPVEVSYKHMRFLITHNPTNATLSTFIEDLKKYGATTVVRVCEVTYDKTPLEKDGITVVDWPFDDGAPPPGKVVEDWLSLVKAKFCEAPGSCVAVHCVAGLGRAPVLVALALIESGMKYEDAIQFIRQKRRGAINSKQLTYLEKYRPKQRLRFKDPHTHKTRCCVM

As for `O.O.O.O.O.O.O.O.O.O=C([O-])[C@@H]1[O][Sb]2([O-])([O][Sb]34([OH])[O][C@H]([C@H](O)CO)[C@H]([O]3)[C@H](C(=O)[O-])[O]4)[O][C@H]([C@H](O)CO)[C@@H]1[O]2.[Na+].[Na+].[Na+]` [sodium stibogluconate], the “IL-3-induced Baf3 growth at high concentration” value in the test with Baf3 cells (1,000 μg/ml) is recorded as “suppressed IL-3-induced Baf3 growth”. For the same compound, the “Baf3 proliferation/viability in the absence of IL-3” value in the test on Baf3 cells (day 3 culture) is “failed to support cell proliferation or maintain cell viability”. Further, the “sensitivity of WM35 cells” value with WM35 cells was “minimally affected”. Also, the “expression levels of PML/RAR-alpha chimeric protein” value in test [1] was “no detectable effect”. Also, the “inactivation of PRL-3 with prolonged pre-incubation” value at PRL-3 (10 μg/ml, pre-incubation 30 or 60 minutes) was “nearly complete inactivation”. Further, at PRL-3 (DiFMUP, comparable conditions), the “inhibition of PRL-3 with DiFMUP substrate” value is recorded as “also detected”. Further, the “reversibility of PRL-3 inhibition by washing” value at PRL-3 (PRL-3 bound to glutathione beads) is listed as “not relieved by a washing process”. In addition, the “growth of DU145R cells versus parental DU145” value with DU145R cells is listed as “growth resistance to sodium stibogluconate”. Further, the “IFN-alpha-induced Stat1 tyrosine phosphorylation” value with Stat1 is on record as “Enhanced”.
